Measured values as given in US4729991A, “Cephem compounds” (Fujisawa Pharmaceutical Co., Ltd., priority 1978, dated 1988).
In brackets after ≈: the same amount, converted by molar mass.

Legend:
Test in all cases: In vitro antibacterial activity, two-fold agar-plate dilution method
Type in all cases: cell-based
[1] = system: Staphylococcus aureus 209P JC-1; settings: HI-agar, 37° C., 20 hours
Procedure: (§1) (1) Test method In vitro antibacterial activity was determined by the two-fold agar-plate dilution method as described below. One loopful of an overnight culture of each test strain in Trypticase-soy broth was streaked on heart infusion agar (HI-agar) containing graded concentrations of the test compound and incubated at 37° C. for 20 hours. The minimal inhibitory concentration (MIC) was expressed in μg/ml.

[2] = system: Escherichia coli NIHJ JC-2; settings: NIHJJC2, HI-agar, 37° C., 20 hours
Procedure: as §1

[3] = system: Klebsiella pneumoniae 20; settings: HI-agar, 37° C., 20 hours
Procedure: as §1

[4] = system: Proteus vulgaris IAM-1025; settings: IAM1025, HI-agar, 37° C., 20 hours
Procedure: as §1

[5] = system: Pseudomonus aeruginosa NCTC-10490; settings: HI-agar, 37° C., 20 hours
Procedure: as §1

[6] = system: Proteus mirabilis 18; settings: HI-agar, 37° C., 20 hours
Procedure: as §1

Row | SMILES | MIC [1] | MIC [2] | MIC [3] | MIC [4] | MIC [5] | MIC [6]
1 | CO/N=C(\C(=O)NC1C(=O)N2C(C(=O)O)=C(CSc3nnnn3C)CSC12)c1nc(N)sc1Br (stereo not drawn) [compound 3, 7-[2-(2-amino-5-bromothiazol-4-yl)-2-methoxyiminoacetamido]-3-(1-methyl-1H-tetrazol-5-ylthiomethyl)-3-cephem-4-carboxylic acid (syn isomer)] | 3.13 µg/mL (≈ 5.3 µM) | 1.56 µg/mL (≈ 2.64 µM) | 0.39 µg/mL (≈ 0.66 µM) | 12.5 µg/mL (≈ 21.2 µM) | 3.13 µg/mL (≈ 5.3 µM) | 3.13 µg/mL (≈ 5.3 µM)
2 | CO/N=C(\C(=O)NC1C(=O)N2C(C(=O)O)=C(COC(=O)c3ccccc3)CSC12)c1nc(N)sc1Br (stereo not drawn) [compound 4, 7-[2-(2-amino-5-bromothiazol-4-yl)-2-methoxyiminoacetamido]-3-benzoyloxymethyl-3-cephem-4-carboxylic acid (syn isomer)] | 1.56 µg/mL (≈ 2.62 µM) | 6.25 µg/mL (≈ 10.5 µM) | 1.56 µg/mL (≈ 2.62 µM) | 12.5 µg/mL (≈ 21 µM) | 6.25 µg/mL (≈ 10.5 µM) | 3.13 µg/mL (≈ 5.25 µM)

Next, values leading:

Row | MIC [1] | MIC [2] | MIC [3] | MIC [4] | MIC [5] | MIC [6] | SMILES
3 | 1.56 µg/mL (≈ 2.63 µM) | 0.78 µg/mL (≈ 1.32 µM) | 0.78 µg/mL (≈ 1.32 µM) | 6.25 µg/mL (≈ 10.5 µM) | 3.13 µg/mL (≈ 5.28 µM) | 0.78 µg/mL (≈ 1.32 µM) | CO/N=C(\C(=O)NC1C(=O)N2C(C(=O)O)=C(CSc3nncs3)CSC12)c1nc(N)sc1Br (stereo not drawn) [compound 1, 7-[2-(2-amino-5-bromothiazol-4-yl)-2-methoxyiminoacetamido]-3-(1,3,4-thiadiazol-2-ylthiomethyl)-3-cephem-4-carboxylic acid (syn isomer)]
4 | 3.13 µg/mL (≈ 5.16 µM) | 1.56 µg/mL (≈ 2.57 µM) | 3.13 µg/mL (≈ 5.16 µM) | 12.5 µg/mL (≈ 20.6 µM) | 6.25 µg/mL (≈ 10.3 µM) | 6.25 µg/mL (≈ 10.3 µM) | CO/N=C(\C(=O)NC1C(=O)N2C(C(=O)O)=C(CSc3nnc(C)s3)CSC12)c1nc(N)sc1Br (stereo not drawn) [compound 2, 7-[2-(2-amino-5-bromothiazol-4-yl)-2-methoxyiminoacetamide]-3-(5-methyl-1,3,4-thiadiazol-2-ylthiomethyl)-3-cephem-4-carboxylic acid (syn isomer)]
5 | 3.13 µg/mL (≈ 5.71 µM) | 1.56 µg/mL (≈ 2.85 µM) | 0.39 µg/mL (≈ 0.712 µM) | 1.56 µg/mL (≈ 2.85 µM) | 1.56 µg/mL (≈ 2.85 µM) | 0.78 µg/mL (≈ 1.42 µM) | CO/N=C(\C(=O)NC1C(=O)N2C(C(=O)O)=C(CSc3nncs3)CSC12)c1nc(N)sc1Cl (stereo not drawn) [compound 5, 7-[2-(2-amino-5-chlorothiazol-4-yl)-2-methoxyiminoacetamido]-3-(1,3,4-thiadiazol-2-ylthiomethyl)-3-cephem-4-carboxylic acid (syn isomer)]
